Source: patent US10738057B2, “Tertiary alcohols as PI3K-γ inhibitors” (Incyte Corporation, priority 2017, dated 2020)
Counter-ions that a name gives are not always drawn. Like-named read-outs stand apart in the source and are kept apart here.

Tests used:
[1] = target: PI3Kγ (p110γ) Recombinant Human Protein (Homo sapiens (Human), UniProt P48736); test: PI3K-γ scintillation proximity assay; assay type: biochemical; details: 20 μM PIP2, 2 μM ATP, 13 nM PI3Kγ, 120 min, room temperature
How it was run: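 Radiometric SPA in 20 mM MOPS pH 6.7, 10 mM MgCl2, 5 mM DTT, 0.03% CHAPS, 2% DMSO. Stopped with EDTA and WGA SPA beads for scintillation counting. IC50 fitted from % solvent-control activity versus log concentration.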

[2] = target: PI3Kδ (p110δ/p85α) Recombinant Human Protein (Homo sapiens (Human), UniProt O00329); test: PI3Kδ scintillation proximity assay; assay type: biochemical; details: 20 μM PIP2, 2 μM ATP, 3.4 nM PI3Kδ, 120 min, room temperature; read-out: PI3Kδ IC50
How it was run: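 Recombinant human p110δ/p85α was run at room temperature in 20 mM MOPS pH 6.7, 10 mM MgCl2, 5 mM DTT, 0.03% CHAPS, 2% DMSO. Substrates were 20 µM PIP2 and 2 µM ATP with [γ-33P]ATP. Product was captured overnight on WGA SPA beads and counted by scintillation; IC50 fitted from percent of solvent control versus log concentration.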

[3] = tested on: Phosphorylated Ribosomal Protein S6 (RPS6) in THP-1 cells; test: THP-1 RPS6 ELISA assay; assay type: cell-based, Human; details: serum starved, 2 h compound, 10 nM MCP-1 for 15 min, phospho-RPS6 ELISA, read-out: PI3Kγ_THP1_RPS6_ELISA IC50
Description: Example A. THP-1 RPS6 ELISA Assay
To measure the Phosphorylated Ribosomal Protein S6 (RPS6) in cell lysates, THP-1 cells (Human Acute Monocytic Leukemia) are purchased from ATCC (Manassas, Va.) and maintained in RPMI with 10% FBS (Gibco/Life Technologies, Carlsbad, Calif.). For the assay, THP-1 cells are serum starved overnight in RPMI, then plated in RPMI (2×10^5 cells/well in 90 μL) into 96-well flat-bottom tissue culture treated plates (Corning, Corning, N.Y.), in the presence or absence of a concentration range of test compounds. Covered plates are incubated for 2 hours at 37° C., 5% CO2 then treated with or without 10 nM MCP-1 (MYBioSource, San Diego, Calif.) for 15 minutes at 37° C., 5% CO2. Plates are centrifuged at 1600 RPM and supernatants are removed. Cells are lysed in Lysis Buffer (Cell Signaling, Danvers, Mass.) with Protease Inhibitor (Calbiochem/EMD, Germany), PMSF (Sigma, St Louis Mo.), HALTS (Thermo Fisher, Rockford, Ill.) for 30 min on wet ice. Cell lysates are frozen at −80° C. before testing. The lysates are tested in the Human/Mouse/Rat Phospho-RPS6 ELISA (R&D Systems, Inc. Minn, Minn.). The plate is measured using a microplate reader (SpectraMax M5—Molecular Devices, LLC Sunnyvale, Calif.) set to 450 nm with a wavelength correction of 540. IC50 determination is performed by fitting the curve of inhibitor percent inhibition versus the log of the inhibitor concentration using the GraphPad Prism 5.0 software.

[4] = Homo sapiens, THP-1, THP-1 cells

Chain of PI3Kγ (p110γ) Recombinant Human Protein (P48736 whole entry): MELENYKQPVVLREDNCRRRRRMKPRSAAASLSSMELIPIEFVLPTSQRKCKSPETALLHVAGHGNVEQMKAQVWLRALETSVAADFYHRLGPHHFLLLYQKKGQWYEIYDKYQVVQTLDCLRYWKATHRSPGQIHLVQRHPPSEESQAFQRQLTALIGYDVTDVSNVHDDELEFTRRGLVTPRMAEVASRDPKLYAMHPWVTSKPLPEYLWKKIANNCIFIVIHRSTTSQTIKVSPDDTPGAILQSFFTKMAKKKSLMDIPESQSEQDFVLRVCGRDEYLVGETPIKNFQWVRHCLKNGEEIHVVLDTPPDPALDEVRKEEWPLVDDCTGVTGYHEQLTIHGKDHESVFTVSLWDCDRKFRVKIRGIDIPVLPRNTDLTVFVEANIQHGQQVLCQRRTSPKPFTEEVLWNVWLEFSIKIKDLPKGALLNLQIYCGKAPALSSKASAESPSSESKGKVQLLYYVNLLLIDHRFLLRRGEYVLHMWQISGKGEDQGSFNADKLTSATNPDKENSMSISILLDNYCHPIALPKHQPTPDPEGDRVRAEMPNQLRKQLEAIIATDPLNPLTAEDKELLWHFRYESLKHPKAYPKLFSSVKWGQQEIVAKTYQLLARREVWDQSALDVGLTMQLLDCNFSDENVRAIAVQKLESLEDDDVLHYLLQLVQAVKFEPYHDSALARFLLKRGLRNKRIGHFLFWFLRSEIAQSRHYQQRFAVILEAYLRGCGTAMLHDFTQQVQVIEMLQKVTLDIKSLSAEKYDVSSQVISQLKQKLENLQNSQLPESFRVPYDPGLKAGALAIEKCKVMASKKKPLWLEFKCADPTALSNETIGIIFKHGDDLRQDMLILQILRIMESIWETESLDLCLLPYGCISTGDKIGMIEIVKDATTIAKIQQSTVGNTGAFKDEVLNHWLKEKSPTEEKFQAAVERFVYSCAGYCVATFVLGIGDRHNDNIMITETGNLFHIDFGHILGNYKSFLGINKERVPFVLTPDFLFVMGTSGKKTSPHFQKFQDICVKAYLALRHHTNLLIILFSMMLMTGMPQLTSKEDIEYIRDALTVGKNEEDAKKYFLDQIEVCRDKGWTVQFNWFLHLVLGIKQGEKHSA
Chain of PI3Kδ (p110δ/p85α) Recombinant Human Protein (O00329 whole entry): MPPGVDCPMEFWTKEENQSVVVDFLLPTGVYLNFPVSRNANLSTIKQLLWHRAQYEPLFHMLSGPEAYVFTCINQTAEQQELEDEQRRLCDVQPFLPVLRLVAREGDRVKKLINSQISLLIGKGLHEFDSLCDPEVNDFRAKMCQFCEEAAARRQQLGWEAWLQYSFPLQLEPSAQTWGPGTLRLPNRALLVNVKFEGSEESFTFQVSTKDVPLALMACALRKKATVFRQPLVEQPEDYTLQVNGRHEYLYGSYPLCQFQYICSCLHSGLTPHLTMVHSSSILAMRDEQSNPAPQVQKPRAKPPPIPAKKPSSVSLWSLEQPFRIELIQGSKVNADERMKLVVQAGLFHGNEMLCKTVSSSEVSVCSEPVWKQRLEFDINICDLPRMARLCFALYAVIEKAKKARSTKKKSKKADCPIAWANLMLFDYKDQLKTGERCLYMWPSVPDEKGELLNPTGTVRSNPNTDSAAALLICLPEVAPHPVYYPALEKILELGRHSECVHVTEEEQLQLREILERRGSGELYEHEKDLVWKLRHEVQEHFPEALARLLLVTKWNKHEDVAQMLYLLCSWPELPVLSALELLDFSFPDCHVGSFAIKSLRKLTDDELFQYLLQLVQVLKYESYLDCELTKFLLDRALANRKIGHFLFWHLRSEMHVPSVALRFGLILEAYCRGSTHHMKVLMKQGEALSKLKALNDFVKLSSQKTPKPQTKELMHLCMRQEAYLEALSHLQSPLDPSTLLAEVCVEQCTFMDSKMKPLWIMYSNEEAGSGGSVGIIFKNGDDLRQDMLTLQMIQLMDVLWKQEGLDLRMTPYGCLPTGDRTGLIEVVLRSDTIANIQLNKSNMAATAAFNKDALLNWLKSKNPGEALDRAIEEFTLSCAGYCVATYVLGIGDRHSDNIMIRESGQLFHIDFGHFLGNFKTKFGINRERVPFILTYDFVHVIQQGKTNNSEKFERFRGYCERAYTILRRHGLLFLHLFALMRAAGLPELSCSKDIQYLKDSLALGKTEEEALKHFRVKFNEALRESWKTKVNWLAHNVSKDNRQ
Chain of PI3Kδ (p110δ/p85α) Recombinant Human Protein (P27986 whole entry partner): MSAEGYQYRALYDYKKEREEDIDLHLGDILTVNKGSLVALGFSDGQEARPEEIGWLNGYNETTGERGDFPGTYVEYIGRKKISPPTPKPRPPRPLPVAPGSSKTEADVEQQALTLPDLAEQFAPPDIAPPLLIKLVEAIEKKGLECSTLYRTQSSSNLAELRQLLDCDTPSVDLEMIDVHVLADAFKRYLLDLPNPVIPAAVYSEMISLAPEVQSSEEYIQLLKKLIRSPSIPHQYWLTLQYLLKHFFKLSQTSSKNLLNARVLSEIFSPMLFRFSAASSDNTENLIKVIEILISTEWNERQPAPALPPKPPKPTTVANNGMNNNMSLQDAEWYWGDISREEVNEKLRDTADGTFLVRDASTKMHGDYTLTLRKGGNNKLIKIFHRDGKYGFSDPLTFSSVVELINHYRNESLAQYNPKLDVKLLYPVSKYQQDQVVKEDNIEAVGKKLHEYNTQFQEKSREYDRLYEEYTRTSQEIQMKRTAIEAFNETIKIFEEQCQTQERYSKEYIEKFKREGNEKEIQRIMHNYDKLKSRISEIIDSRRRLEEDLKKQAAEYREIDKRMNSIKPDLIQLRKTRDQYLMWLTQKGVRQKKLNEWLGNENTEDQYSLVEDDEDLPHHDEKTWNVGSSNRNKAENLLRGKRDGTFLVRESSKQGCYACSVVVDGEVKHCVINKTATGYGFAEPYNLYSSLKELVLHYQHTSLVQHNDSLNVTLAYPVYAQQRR

Compound	IC50 [1] [nM]	IC50 [2] [nM]	IC50 [3, 4] [nM]	IC50 ([3]; THP-1 cells) [nM]
Cc1ncc(-c2cn3c(-c4cc(C(C)(O)C(F)F)ccc4C)cnc3c(N)n2)o1 (stereo not drawn) [Example 28, 2-(3-(8-Amino-6-(2-methyloxazol-5-yl)imidazo[1,2-a]pyrazin-3-yl)-4-methylphenyl)-1,1-difluoropropan-2-ol]	< 100	< 100	100 to 500	
COc1ncccc1-c1cn2c(-c3cc(C(C)(O)C(F)F)ccc3C)cnc2c(N)n1 (stereo not drawn) [Example 33, 2-(3-(8-Amino-6-(2-methoxypyridin-3-yl)imidazo[1,2-a]pyrazin-3-yl)-4-methylphenyl)-1,1-difluoropropan-2-ol]	< 100	100 to 500	< 100	
CCC(O)(c1ccc(C)c(-c2cnc3c(N)nc(-c4ccnn4C)cn23)c1)C(F)F (stereo not drawn) [Example 50, 2-(3-(8-Amino-6-(1-methyl-1H-pyrazol-5-yl)imidazo[1,2-a]pyrazin-3-yl)-4-methylphenyl)-1,1-difluorobutan-2-ol trifluoroacetate]	< 100	100 to 500	100 to 500	
Cc1ccc(C(C)(O)C(F)(F)F)cc1-c1cnc2c(N)nc(C(F)(F)F)nn12 (stereo not drawn) [Example 1, 2-(3-(4-Amino-2-(trifluoromethyl)imidazo[2,1-f][1,2,4]triazin-7-yl)-4-methylphenyl)-1,1,1-trifluoropropan-2-ol]	< 100	100 to 500	100 to 500	
[2H]C([2H])([2H])n1nccc1-c1cn2c(-c3cc(C(O)(CO)C(F)(F)F)ccc3C)cnc2c(N)n1 (single isomer, unassigned) [Example 66, 2-(3-(8-Amino-6-(1-(methyl-d3)-1H-pyrazol-5-yl)imidazo[1,2-a]pyrazin-3-yl)-4-methylphenyl)-3,3,3-trifluoropropane-1,2-diol]	< 100	< 100	< 100	
CCOC(=O)C1CC1c1cn2c(-c3cc(C(C)(O)C(F)F)ccc3C)cnc2c(N)n1 (single isomer, unassigned) [Example 75, Ethyl 2-(8-amino-3-(5-(1,1-difluoro-2-hydroxypropan-2-yl)-2-methylphenyl)imidazo[1,2-a]pyrazin-6-yl)cyclopropane-1-carboxylate trifluoroacetate salt]	< 100	100 to 500	100 to 500	
[2H]C([2H])([2H])c1ccc(C(O)(C(C)O)C(F)(F)F)cc1-c1cnc2c(N)nc(C(F)(F)F)cn12 (single isomer, unassigned) [Example 233, 2-(3-(8-Amino-6-(trifluoromethyl)imidazo[1,2-a]pyrazin-3-yl)-4-(methyl-d3)phenyl)-1,1,1-trifluorobutane-2,3-diol trifluoroacetate salt]	< 100	100 to 500	100 to 500	
Cc1ccc(C(O)(c2nnnn2C)C(F)(F)F)cc1-c1cnc2c(N)nc(C(F)(F)F)cn12 (stereo not drawn) [Example 13, 1-(3-(8-Amino-6-(trifluoromethyl)imidazo[1,2-a]pyrazin-3-yl)-4-methylphenyl)-2,2,2-trifluoro-1-(1-methyl-1H-tetrazol-5-yl)ethan-1-ol trifluoroacetate]	< 100	100 to 500	100 to 500	
Cc1ccc(C2(O)CCCC2F)cc1-c1cnc2c(N)nc(C(F)(F)F)cn12 (stereo not drawn) [Example 61, 1-(3-(8-Amino-6-(trifluoromethyl)imidazo[1,2-a]pyrazin-3-yl)-4-methylphenyl)-2-fluorocyclopentan-1-ol trifluoroacetate salt]	< 100	100 to 500	100 to 500	
Cc1ccc(C(C)(O)C(F)(F)F)cc1-c1cnc2c(N)nc(-c3cnc(C4CC4)s3)cn12 (stereo not drawn) [Example 20, 2-(3-(8-Amino-6-(2-cyclopropylthiazol-5-yl)imidazo[1,2-a]pyrazin-3-yl)-4-methylphenyl)-1,1,1-trifluoropropan-2-ol, TFA]	< 100	< 100	100 to 500	
Cc1ccc(C(O)(C(=O)O)C(F)(F)F)cc1-c1cnc2c(N)nc(C(F)(F)F)cn12 (stereo not drawn) [Example 120, 2-(3-(8-amino-6-(trifluoromethyl)imidazo[1,2-a]pyrazin-3-yl)-4-methylphenyl)-3,3,3-trifluoro-2-hydroxypropanoic acid]	< 100	100 to 500	> 1000	
Cc1ccc(C(C)(O)C(F)F)cc1-c1cnc2c(N)nc(-c3cnn(C4(CC#N)CN(C(=O)C5CCC5)C4)c3)cn12 (stereo not drawn) [Example 100, 2-(3-(4-(8-amino-3-(5-(1,1-difluoro-2-hydroxypropan-2-yl)-2-methylphenyl)imidazo[1,2-a]pyrazin-6-yl)-1H-pyrazol-1-yl)-1-(cyclobutanecarbonyl)azetidin-3-yl)acetonitrile]	< 100	100 to 500	100 to 500	
CNCCC(O)(c1ccc(C)c(-c2cnc3c(N)nc(C(F)(F)F)cn23)c1)C(F)(F)F (single isomer, unassigned) [Example 15, 2-(3-(8-Amino-6-(trifluoromethyl)imidazo[1,2-a]pyrazin-3-yl)-4-methylphenyl)-1,1,1-trifluoro-4-(methylamino)butan-2-ol]	< 100	100 to 500		100 to 500
Cc1ccc(C(C)(O)C(F)F)cc1-c1cnc2c(N)nc(-c3cnn(C)c3C)cn12 (stereo not drawn) [Example 36, 2-(3-(8-Amino-6-(1,5-dimethyl-1H-pyrazol-4-yl)imidazo[1,2-a]pyrazin-3-yl)-4-methylphenyl)-1,1-difluoropropan-2-ol]	< 100	< 100	100 to 500	
Cc1ccc(C(C)(O)C(F)F)cc1-c1cnc2c(N)nc(-c3ccnn3C)cn12 (single isomer, unassigned) [Example 30, 2-(3-(8-Amino-6-(1-methyl-1H-pyrazol-5-yl)imidazo[1,2-a]pyrazin-3-yl)-4-methylphenyl)-1,1-difluoropropan-2-ol]	< 100	100 to 500		100 to 500
Cc1ccc(C(C)(O)C(F)(F)F)cc1-c1cnc2c(N)nc(C3CC(CO)C3)cn12 (single isomer, unassigned) [Example 208, 2-(3-(8-amino-6-(3-(hydroxymethyl)cyclobutyl)imidazo[1,2-a]pyrazin-3-yl)-4-methylphenyl)-1,1,1-trifluoropropan-2-ol trifluoroacetate]	< 100	< 100		< 100
Cc1ccc(C(C)(O)C(F)F)cc1-c1cnc2c(N)nc(-c3cn[nH]c3)cn12 (stereo not drawn) [Example 40, 2-(3-(8-Amino-6-(1H-pyrazol-4-yl)imidazo[1,2-a]pyrazin-3-yl)-4-methylphenyl)-1,1-difluoropropan-2-ol]	< 100	< 100	100 to 500	
Cc1ncc(-c2cn3c(-c4cc(C(C)(O)C(F)F)ccc4C)cnc3c(N)n2)s1 (stereo not drawn) [Example 34, 2-(3-(8-Amino-6-(2-methylthiazol-5-yl)imidazo[1,2-a]pyrazin-3-yl)-4-methylphenyl)-1,1-difluoropropan-2-ol]	< 100	< 100	100 to 500	
Cc1ccc(C(C)(O)C(F)(F)F)cc1-c1cnc2c(N)nc(C(F)(F)F)cn12 (single isomer, unassigned) [Example 5, 2-(3-(8-Amino-6-(trifluoromethyl)imidazo[1,2-a]pyrazin-3-yl)-4-methylphenyl)-1,1,1-trifluoropropan-2-ol]	< 100	100 to 500		500 to 1000
Cc1ccc(C(C)(O)C(F)(F)F)cc1-c1cnc2c(N)nc(C#CC3CC3)cn12 (stereo not drawn) [Example 162, 2-(3-(8-Amino-6-(cyclopropylethynyl)imidazo[1,2-a]pyrazin-3-yl)-4-methylphenyl)-1,1,1-trifluoropropan-2-ol trifluoroacetate salt]	< 100	100 to 500	100 to 500	
Cc1ccc(C(O)(CO)C(F)(F)F)cc1-c1cnc2c(N)nc(C(F)(F)F)cn12 (single isomer, unassigned) [Example 72, 2-(3-(8-Amino-6-(trifluoromethyl)imidazo[1,2-a]pyrazin-3-yl)-4-methylphenyl)-3,3,3-trifluoropropane-1,2-diol]	< 100	100 to 500		< 100
